Publication PMC12785804, “Triterpenoids CDDO and CDDO-EA Inhibit the Replication of Hepatitis B Virus by Modulating Nucleocapsid Assembly” (International Journal of Molecular Sciences, 2025)

Experiments:
[1] = target: T1, HBc protein (HBV core protein), purchased (Hepatitis B virus ayw/France/Tiollais/1979, UniProt P03146); test: SPR (Reichert4, CM5 chip); format: binding
T1 construct: gene C; purchased from Sino Biological; immobilised on CM5 chip

[2] = target: T2, HBc (HBV core protein) in HepAD38 lysate (Hepatitis B virus ayw/France/Tiollais/1979, UniProt P03146); test: CETSA, Western blot; format: biochemical; details: cell lysate, 30 min at room temperature, then 37-72 °C for 3 min
T2 construct: gene C; full-length core expressed from the integrated tetracycline-regulated HBV genome of HepAD38 (HepG2-derived); freeze-thaw cell lysate
T2 sequence (P03146 whole entry): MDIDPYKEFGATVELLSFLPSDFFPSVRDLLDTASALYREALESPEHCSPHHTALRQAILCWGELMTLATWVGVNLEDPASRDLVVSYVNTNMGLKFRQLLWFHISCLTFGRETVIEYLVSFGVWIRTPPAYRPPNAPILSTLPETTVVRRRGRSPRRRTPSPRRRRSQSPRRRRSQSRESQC

T1 sequence (P03146 whole entry): as above

Row | Structure (SMILES) | SPR binding [1] | thermal shift (right-shifted CETSA melting curve) ([2]; 0.8 μM compound) | thermal shift (right-shifted CETSA melting curve) ([2]; 0.4 μM compound)
1 | CC1(C)CC[C@]2(C(=O)O)CC[C@]3(C)[C@H](C(=O)C=C4[C@@]5(C)C=C(C#N)C(=O)C(C)(C)[C@@H]5CC[C@]43C)[C@@H]2C1 [CDDO, 2-cyano-3,12-dioxooleana-1,9-dien-28-oic acid] | compounds CDDO-EA and CDDO exhibited weak binding kinetics to HBc protein | CDDO-EA and CDDO treatments significantly stabilized HBc protein | 
2 | CCNC(=O)[C@]12CCC(C)(C)C[C@H]1[C@H]1C(=O)C=C3[C@@]4(C)C=C(C#N)C(=O)C(C)(C)[C@@H]4CC[C@@]3(C)[C@]1(C)CC2 [CDDO-EA] | compounds CDDO-EA and CDDO exhibited weak binding kinetics to HBc protein |  | CDDO-EA and CDDO treatments significantly stabilized HBc protein
